Patent US12280179B2 (Urotronic, Inc., priority 2012, dated 2025)
Each block holds one compound with its values, some of them ahead of it.

Columns and labels:
[1] = stability of additives with paclitaxel under ethylene oxide sterilization, heating and aging; settings: additive with paclitaxel; reacted with paclitaxel
[2] = with the addition of BSA; cited from earlier work
prostate = assay: BPH Preclinical Study 4: histology, clinical observation, urethra lumen diameter; assay type: in vivo, dog
Source text: (§1) This study was completed on mongrel canines.

[3] = BPH Preclinical Study 4: tissue pharmacokinetics of paclitaxel; assay type: in vivo, dog
Source text: as §1

[4] = Human clinical study, urethral strictures: paclitaxel in blood, urine, semen; assay type: in vivo
Protocol: Clinical subjects were evaluated at 14, 30, 90, 180, 365 days, and 2 years after the index procedure. Evaluations included analysis of stricture free rate, uroflowmetry including Qmax, and PVR.

[5] = Human clinical study, BPH: paclitaxel in blood, urine, semen; assay type: in vivo
[6] = BPH Preclinical Study 4: plasma paclitaxel concentration; assay type: in vivo, dog
Source text: as §1

albumin = settings: cited from earlier work

SMILES: O=C(O)c1ccccc1 [benzoic acid]
stability under ethylene oxide sterilization, heating, and aging process [1]: not stable

clinical abnormalities (prostate; any animals, duration of the study): No significant clinical abnormalities
prostate histology (prostate; maximum dose animals, slower healing relative to standard dose and control): ongoing healing at 28 days
abnormalities or complications (prostate; maximum dose treatment arm using 19.6 mg of paclitaxel): no abnormalities or complications
prostate drug concentration, maximum dose arm versus standard dose ([3]; 28 days): 4.5 times
prostatic urethra drug concentration, maximum dose arm versus standard dose ([3]; 28 days): 11 times
prostate drug concentration, maximum dose arm versus standard dose ([3]; 70 days): 23 times
prostatic urethra drug concentration, maximum dose arm versus standard dose ([3]; 70 days): 23 times
average drug concentration, epididymis ([3]; lowest, immediately after treatment): 0.0017 µg/g
concentration at 28 days ([3]; male, mongrel, dog, prostate, other: transurethral drug-coated balloon catheter, 6.8 mg, standard dose arm, 28 days): 20 ng/g
concentration at 1 h ([3]; male, mongrel, dog, prostatic urethra, other: transurethral drug-coated balloon catheter, 6.8 mg): 28000 ng/g
concentration at 70 days ([3]; male, mongrel, dog, prostatic urethra, other: transurethral drug-coated balloon catheter, 6.8 mg, standard dose arm, 70 days): 4 ng/g
nonurethral close proximity tissue sample concentrations ([3]; most samples, 28 days and beyond): at or below the limit of quantification
Human plasma paclitaxel concentration ([4]; 1 hour, 3 hours, 5 hours, 10 hours, 24 hours, and 5 days): below the level of quantification
concentration at 14 days ([4]; human, semen): 2.5 ng/mL
concentration at 30 days ([4]; human, semen): 1 ng/mL
concentration at 5 days ([4]; human, urine, 5 days): 2.6 ng/mL
concentration at 14 days ([4]; human, urine): 0.3 ng/mL
concentration at 30 days ([4]; human, urine): 0.1 ng/mL
Human urine paclitaxel concentration, average ([4]; immediately post procedure): 184 ng/mL
Human plasma paclitaxel concentration, average ([4]; immediately post treatment): 0.1 ng/mL
Human urine paclitaxel concentration, average ([5]; immediately post procedure): 598 ng/mL
Human plasma paclitaxel concentration, average ([5]; immediately post treatment): 0.2 ng/mL
concentration at 1 h ([5]; male, human, plasma, 2.4 μg of paclitaxel per millimeter squared, 1 hour): 0.2 ng/mL
concentration at 3 h ([5]; male, human, plasma, 2.4 μg of paclitaxel per millimeter squared, 3 hours): 0.1 ng/mL
concentration at 5 h ([5]; male, human, plasma, 2.4 μg of paclitaxel per millimeter squared, 5 hours): 0.1 ng/mL
concentration at 10 h ([5]; male, human, plasma, 2.4 μg of paclitaxel per millimeter squared, 10 hours): 0.07 ng/mL
concentration at 24 h ([5]; male, human, plasma, 2.4 μg of paclitaxel per millimeter squared, 24 hours): 0.03 ng/mL
concentration at 14 days ([5]; male, human, semen, 2.4 μg of paclitaxel per millimeter squared, 14 days): 5.3 ng/mL
concentration at 4 days ([5]; male, human, urine, 2.4 μg of paclitaxel per millimeter squared, 4 days): 202 ng/mL
concentration at 30 days ([5]; male, human, urine, 2.4 μg of paclitaxel per millimeter squared, 30 days): 5.1 ng/mL
plasma paclitaxel concentration ([6]; maximum dose, 12 hour and later): BLOQ
plasma paclitaxel concentration ([6]; standard dose, all time-points (1, 3, 7, 12 hours, 1, 3, 7, 14, and 28 days)): BLOQ
SMILES: CC(=O)O[C@H]1C(=O)[C@@]2(C)[C@H]([C@H](OC(=O)c3ccccc3)[C@]3(O)C[C@H](OC(=O)[C@H](O)[C@@H](NC(=O)c4ccccc4)c4ccccc4)C(C)=C1C3(C)C)[C@]1(OC(C)=O)CO[C@@H]1C[C@@H]2O [paclitaxel]
increase of solubility in PBS [2]: over 20 fold

SMILES: CO[C@H]1C[C@@H]2CC[C@@H](C)[C@@](O)(O2)C(=O)C(=O)N2CCCC[C@H]2C(=O)O[C@H]([C@H](C)C[C@@H]2CC[C@@H](O)[C@H](OC)C2)CC(=O)[C@H](C)/C=C(\C)[C@@H](O)[C@@H](OC)C(=O)[C@H](C)C[C@H](C)/C=C/C=C/C=C/1C [rapamycin]
protein bound (albumin): 92%
share of protein binding that is to albumin (albumin; primarily to albumin): 97%
